Measurements as given in ChEMBL document CHEMBL3507680, “University of Dundee, Gates Library screen for HepG2 cell viability”.

Experiment: Human HepG2 cell viability assay in 384 well format
Type: toxicity, cell-based
Set-up: dose 125 nL, time 70.5 hour; concentration not given beside the values
Conditions: HepG2 cells, read-out: Inhibition

SMILES | cytotoxicity at 70.5 h
Cc1ccc2nc3n(c2c1)[C@@H](CNCc1nccs1)COC3 | -5.06%
COc1ccc(CNC[C@H]2COCc3nc4cccnc4n32)cc1 | -4.57%
CCN(CC)C[C@H]1CN2CC[C@H]1C[C@@H]2CNC(=O)c1ccco1 | -3.47%
COCC(=O)NC[C@H]1C[C@@H]2CCN1C[C@@H]2CN1CCc2ccccc21 | -3.32%
O=C(N[C@@H]1CNCCC[C@H]1O)c1ccc(OCCN2CCOCC2)cc1 | 1.5%
O[C@@H]1C[C@@H](c2nc(-c3ccccc3)no2)N(Cc2cccnc2)C1 | -2.41%
Cc1ccc(S(=O)(=O)Cc2noc([C@@H]3C[C@@H](O)CN3)n2)cc1 | -3.28%
COCCOc1ccc(-c2noc([C@@H]3CCCN3)n2)cn1 | -0.543%
Cc1ccccc1CN1CCC[C@H]1c1nc(-c2cncnc2N)no1 | -3.84%
CCN(CC)C1(Cc2cc(-c3ccccn3)on2)COC1 | -4.45%
CC(C)(C)CNC1(Cc2cc(C(C)(C)O)on2)COC1 | -7.44%
CC(=O)N1CCC(N2CCOC[C@H]2c2nc(-c3ccccc3)c[nH]2)CC1 | -2.43%
CS(=O)(=O)c1ccc(CNC[C@H]2COCc3nc4ccccc4n32)cc1 | 5.94%
CC(=O)N1CCC(N2C[C@@H](F)[C@@H](OCc3nc4ncccc4[nH]3)C2)CC1 | -2.27%
CC(=O)NC[C@H]1COCc2nc3cc(S(C)(=O)=O)ccc3n21 | -0.348%
CS(=O)(=O)c1ccc2c(c1)nc1n2[C@@H](CNCc2cccnc2)COC1 | -6.64%
COc1ccc(CN2C[C@H]3CN(C(=O)c4ccno4)CCN3C2=O)cc1 | -7.88%
CN1CCC(N[C@@H]2CO[C@H](CNC(=O)c3cccs3)[C@H]2O)CC1 | -6.9%
O=S(=O)(c1ccc(Cl)cc1)N1CCOC[C@H](Oc2cnccn2)C1 | 0.0647%
CO[C@H]1COCCN(C(=O)c2ccc(C(F)(F)F)cc2)C1 | -4.56%
O=C(NC1CCCC1)O[C@H]1COCCN(c2nc3ccccc3s2)C1 | 3.92%
CS(=O)(=O)c1ccc(O[C@H]2COCCN(C(=O)c3ccno3)C2)cc1 | -2.76%
O=C(c1ccno1)N1CCOC[C@H](Oc2ccc(C(F)(F)F)cc2)C1 | -0.658%
COc1ccc(CN2CCOC[C@H](Oc3cccnc3)C2)cc1 | 4.36%
O=C(NC[C@H]1OC[C@@H](NC2CCC2)[C@@H]1O)c1cccs1 | -5.08%
O=C(NC[C@H]1OC[C@@H](NC2CCCCC2)[C@@H]1O)c1cccs1 | -5.2%
O=C(NC[C@H]1OC[C@@H](NC2CCCC2)[C@@H]1O)C1CCCC1 | 10.4%

SMILES | cytotoxicity at 70.5 h
c1cc(-c2c[nH]c([C@@H]3COCCN3C3CCCCC3)n2)ccn1 | 0.143%
Cc1ccc(CN[C@@H]2CO[C@H](CNS(=O)(=O)c3ccccc3)[C@H]2O)cc1 | -0.953%
c1ccc(CN2CCOC[C@H]2c2nc(-c3ccncc3)c[nH]2)nc1 | 1.25%
CC(=O)N1CCC2(CC1)CN(C(=O)c1ccc3c(c1)OCCO3)C2 | 5.66%
CCN1CC2(CCCCN2C(=O)c2ccn(C)n2)CC1=O (stereo not given) | 0.273%
O=C1CC2(CCCCN2C(=O)c2ccoc2)CN1Cc1ccccc1 (stereo not given) | 3.41%
CC(=O)N1CCC2(CCN(CC3CCCCC3)C2)CC1 | 3.48%
CC(C)C(=O)N1CCC2(CC1)NC(=O)[C@H]1CN(Cc3cccnc3)C[C@H]12 | 4.61%
NC(=O)N1C[C@@H]2CN(C(=O)c3ccco3)C[C@@H]2C1 | -7.36%
CC(C)NC(=O)N1CCOC2(CCNCC2)C1 | -2.57%
CC(C)C(=O)NC1COC2(CCN(C(=O)c3cccnc3)CC2)C1 (stereo not given) | -3.81%
O=C1CCC2(CCCN(C(=O)c3ccco3)CC2)N1 (stereo not given) | -3.81%
O=S(=O)(c1cccc(Cl)c1)N1C[C@@H]2CCN[C@@H]2C1 | -0.439%
O=C1CCCC2(CCN(C(=O)c3cnccn3)CC2)N1 | -4.91%
CN(C)C1COC2(CCN(C(=O)c3cccnc3)CC2)C1 (stereo not given) | -6.03%
CN1C(=O)CC[C@@H]2[C@H]1CCN2S(=O)(=O)c1cccs1 | -1.06%
CC(C)NC(=O)N1CCC2(CC1)NC(=O)[C@H]1CN(C(=O)N(C)C)C[C@H]12 | -3.94%
CCS(=O)(=O)N1CCC2(CC1)CN(C(=O)N(C)C)Cc1ccccc12 | -2.71%
C[C@H]1C[C@H]2CN(C(=O)C3=CCCCC3)CC[C@H]2O1 | -2.58%
O=C(C1CCCC1)N1C[C@@H]2CCNC[C@@H]21 | -9.43%
CCN1C(=O)C(c2ccccc2)CC12CCN(c1ncccn1)CC2 (stereo not given) | -18.6%
O=C(c1ccsc1)N1C[C@@H]2CCN(C(=O)c3cccc(F)c3)[C@@H]2C1 | -11.5%
O=C(NC1CCCC1)c1n[nH]c2c1CNCC2 | -12.1%
O=C(NC1CCC1)c1n[nH]c2c1CNCC2 | -8.89%
CC(C)CC(=O)N1CCC2(CC1)NC(=O)[C@H]1CN(C(=O)N(C)C)C[C@H]12 | -7.99%
CC(=O)N1CCc2[nH]nc(C(=O)N3CCOCC3)c2C1 | -4.57%
O=C(Nc1cccnc1)c1noc2c1CN(S(=O)(=O)C1CC1)CC2 | -12.1%

SMILES | cytotoxicity at 70.5 h
O=C(c1ccco1)N1C[C@H]2CCCN(C(=O)c3ccsc3)[C@H]2C1 | -16.2%
COCC(=O)N1CCC2(CC1)NC(=O)[C@H]1CN(C(=O)N(C)C)C[C@H]12 | -7.64%
Cc1ccc(CN2C[C@H]3CN(CC4CCN(C)CC4)C(=O)[C@H]3C2)s1 | -12.7%
O=C(C1CCCC1)N1C[C@H]2CNC[C@H]2C1 | -8.49%
O=C(Cc1cccc(F)c1)N1C[C@H]2CN(Cc3cccnc3)C[C@H]2C1 | -12%
COc1ccc(CN2Cc3[nH]nc(C(=O)N(C)C)c3C2)cc1 | -11.8%
O=C(NCc1ccco1)[C@H]1C[C@H]2OCC[C@H]2N(C(=O)c2ccnnc2)C1 | -12.6%
O=C(NCC1CC1)C1CN(Cc2cccs2)Cc2ccnn2C1 (stereo not given) | -13.4%
O=C(c1ccco1)N1CCOCC2(C1)CN(c1ccoc1)C(=O)CO2 (stereo not given) | -10%
O=C(NC1CC1)N1CCOCC2(C1)CN(c1ccccc1)C(=O)CO2 (stereo not given) | -9.6%
CC(C)CNC(=O)c1cc2c(s1)CCN2S(C)(=O)=O | -10.9%
CCOCC1CN(C(=O)N2CCCC2)Cc2cnn(C)c21 (stereo not given) | -6.47%
CS(=O)(=O)N1CCc2sc(C(=O)NCc3ccncc3)cc21 | -7.65%
Cc1occc1C(=O)N1C[C@@H](C(=O)NCc2ccco2)C[C@H]2OCC[C@H]21 | -10.4%
CCOCC1CN(C(=O)C2=CCCC2)Cc2cnn(C)c21 (stereo not given) | -14.7%
N#CC1(C(=O)NCC2CCC3(CCNCC3)O2)CC1 (stereo not given) | 20%
CC(C)N1CCC2(CCCNC2)C1=O (stereo not given) | -14.6%
Cc1noc(C)c1CNC[C@@]1(COc2cccnc2)C[C@@H](O)[C@@H](O)C1 | -8.56%
COCc1nn(CC2CC2)c2c1CN(Cc1cccs1)CC2 | -8.23%
CS(=O)(=O)N1CCC2(CC1)CN(CC1CC1)CC21CCNC1=O (stereo not given) | -9.45%
CC(C)CN1CCC2(CC1)CN(C(=O)C(C)C)C2 | -9.29%
CCOCc1nn(CC2CC2)c2c1CN(Cc1ccco1)CC2 | -6.88%
O=C1CCC2(CCCN(C(=O)c3ccccn3)CC2)N1 (stereo not given) | -1.45%
CC(C)OCc1nn(CC2CC2)c2c1CN(Cc1ccco1)CC2 | -1.8%
Cc1ccc(CN2CCC3(CCCC(=O)N3)CC2)s1 | -3.64%
O=C1CCCC2(CCN(C(=O)c3ccccn3)CC2)N1 | -1.46%
CC(C)CN1C[C@@H]2C(=O)N(C)C3(CCN(C(=O)C(C)C)CC3)[C@@H]2C1 | -6.33%

SMILES | cytotoxicity at 70.5 h
CCN1CCN(C)C(=O)C12CCN(Cc1ccsc1)CC2 | -13%
COCc1nn(C)c2c1CN(Cc1cnn(C)c1)CC2 | -11.4%
O=S(=O)(c1cccs1)N1CC[C@H]2[C@H]1CCN2CC1CC1 | -9.72%
Cc1cccc(C(=O)N2C[C@@H]3[C@H](CC(=O)NC(C)C)[C@@H]3C2)n1 | -9.84%
Cc1ccccc1CN1CCC2(CC1)CN(S(=O)(=O)c1ccccc1)C2 | -6.98%
O=C(c1ccccc1)N1CCOC2(CCN(Cc3cccs3)CC2)C1 | 12.2%
CC(=O)N1CCC12CCN(Cc1ccco1)CC2 | 19.9%
COCCN1CCC2(CC1)CN(C(=O)c1ccco1)CCO2 | 12.3%
O=C(c1ccncc1F)N1CC2CC1(C(=O)N1CCCC1)C2 | -11.2%
COCC(=O)N1CCOCC2(CCN(Cc3cccs3)C2)C1 (stereo not given) | -10.6%
CC(C)CCN1C2(CCN(C(=O)CN(C)C)C2)c2ccccc2S1(=O)=O (stereo not given) | -5.18%
O=C(c1cccs1)N1CCOCC2(C1)CN(c1cccnc1)C(=O)CO2 (stereo not given) | -16.5%
CNC(=O)CN1C(=O)CCC12CCCN(Cc1cccc(F)c1)C2 (stereo not given) | -6.75%
Cc1cc(CN2CC[C@H]3[C@H]2CCN3C)oc1C | -5.26%
CN1CCC2(CC1)CN(CC1CC1)CC21CCNC1=O (stereo not given) | -6.91%
Cc1cccc(C(=O)N2C[C@@H]3[C@H](CC(=O)Nc4cccnc4)[C@@H]3C2)n1 | -14.3%
Cn1cc(CN2CC[C@@H]3[C@@H]2CCN3Cc2ccc3c(c2)OCO3)cn1 | -3%
c1cnc(N2CC3(CCN(Cc4cccnc4)C3)C2)nc1 | 9.91%
CN(C)C[C@H]1C[C@@H]2CN(Cc3ccco3)C[C@@H]2O1 | -16.1%
O=C1[C@H]2CN(Cc3cccs3)C[C@H]2CN1CCN1CCCC1 | 12%
CN(C)CCN1C(=O)CCC12CCN(Cc1cccs1)CC2 | -11.7%
CC(C)N(C)C[C@H]1C[C@@H]2CN(Cc3ccco3)C[C@@H]2O1 | -1.96%
c1cncc(CN2CC[C@@H]3[C@@H]2CCN3Cc2ccc3c(c2)OCO3)c1 | 0.903%
c1ccc(N2CC3(CCN(Cc4cccnc4)C3)C2)nc1 | -7.68%
